According to PubChem BioAssay (NCI):
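Compound exposure: 48 hours, 5 concentrations, 96-well plates. The concentration for full growth arrest is given as TGI.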

Key:
Experiment in all cases: growth of human tumour cells (NCI), 48 h
OVCAR-3 ovarian = tested on: OVCAR-3 ovarian
HOP-62 NSCLC = tested on: HOP-62 NSCLC
DMS 114 small cell lung = tested on: DMS 114 small cell lung
HL-60(TB) leukemia = tested on: HL-60(TB) leukemia
COLO 205 colon = tested on: COLO 205 colon
NCI-H522 lung = tested on: NCI-H522 lung
KM20L2 colon = tested on: KM20L2 colon
SF-539 CNS = tested on: SF-539 CNS
K-562 leukemia = tested on: K-562 leukemia
HCC-2998 colon = tested on: HCC-2998 colon
NCI-H460 lung = tested on: NCI-H460 lung
ACHN renal = tested on: ACHN renal
RXF 393 renal = tested on: RXF 393 renal
SW-620 colon = tested on: SW-620 colon
TK-10 renal = tested on: TK-10 renal
DMS 273 small cell lung = tested on: DMS 273 small cell lung
OVCAR-5 ovarian = tested on: OVCAR-5 ovarian
MOLT-4 leukemia = tested on: MOLT-4 leukemia
IGROV1 ovarian = tested on: IGROV1 ovarian
OVCAR-8 ovarian = tested on: OVCAR-8 ovarian
LOX IMVI melanoma = tested on: LOX IMVI melanoma
UO-31 renal = tested on: UO-31 renal
CCRF-CEM leukemia = tested on: CCRF-CEM leukemia
HOP-18 NSCLC = tested on: HOP-18 NSCLC
SF-295 CNS = tested on: SF-295 CNS
SK-MEL-2 melanoma = tested on: SK-MEL-2 melanoma
SK-OV-3 ovarian = tested on: SK-OV-3 ovarian
UACC-62 melanoma = tested on: UACC-62 melanoma
A498 renal = tested on: A498 renal
DLD-1 colon = tested on: DLD-1 colon
SF-268 CNS = tested on: SF-268 CNS
KM12 colon = tested on: KM12 colon
RPMI-8226 leukemia = tested on: RPMI-8226 leukemia
SNB-78 CNS = tested on: SNB-78 CNS
HOP-92 NSCLC = tested on: HOP-92 NSCLC
SN12C renal = tested on: SN12C renal
MALME-3M melanoma = tested on: MALME-3M melanoma
SNB-75 CNS = tested on: SNB-75 CNS
U251 CNS = tested on: U251 CNS
CAKI-1 renal = tested on: CAKI-1 renal
SK-MEL-5 melanoma = tested on: SK-MEL-5 melanoma
A549 NSCLC = tested on: A549 NSCLC
SK-MEL-28 melanoma = tested on: SK-MEL-28 melanoma
NCI-H23 lung = tested on: NCI-H23 lung
HCT-15 colon = tested on: HCT-15 colon
786-0 renal = tested on: 786-0 renal
EKVX NSCLC = tested on: EKVX NSCLC
M19-MEL melanoma = tested on: M19-MEL melanoma
SNB-19 CNS = tested on: SNB-19 CNS
M14 melanoma = tested on: M14 melanoma
SR leukemia = tested on: SR leukemia
HCT-116 colon = tested on: HCT-116 colon
HT29 colon = tested on: HT29 colon
NCI-H226 lung = tested on: NCI-H226 lung
LXFL 529 NSCLC = tested on: LXFL 529 NSCLC
UACC-257 melanoma = tested on: UACC-257 melanoma
OVCAR-4 ovarian = tested on: OVCAR-4 ovarian

With `COc1ccc(/C=C/C(=O)c2sc(NC(=S)NC(=O)c3ccccc3F)nc2C)cc1OC` the TGI (OVCAR-3 ovarian) was > 100 µM, the TGI (HOP-62 NSCLC) was > 100 µM and the TGI (DMS 114 small cell lung) was > 100 µM. For the same molecule, the TGI (HL-60(TB) leukemia) was > 100 µM, the TGI (COLO 205 colon) was > 100 µM and the TGI (NCI-H522 lung) was 63.9 µM. For the same molecule, the TGI (KM20L2 colon) was > 100 µM, the TGI (SF-539 CNS) was > 100 µM and the TGI (K-562 leukemia) was > 100 µM. The TGI (HCC-2998 colon) was > 100 µM, the TGI (NCI-H460 lung) was > 100 µM and the TGI (ACHN renal) was > 100 µM. For the same molecule, the TGI (RXF 393 renal) was > 100 µM, the TGI (SW-620 colon) was > 100 µM and the TGI (TK-10 renal) was > 100 µM. For the same molecule, the TGI (DMS 273 small cell lung) was > 100 µM, the TGI (OVCAR-5 ovarian) was > 100 µM and the TGI (MOLT-4 leukemia) was > 100 µM. The TGI (IGROV1 ovarian) was > 100 µM, the TGI (OVCAR-8 ovarian) was > 100 µM and the TGI (LOX IMVI melanoma) was > 100 µM. The TGI (UO-31 renal) was > 100 µM, the TGI (CCRF-CEM leukemia) was > 100 µM and the TGI (HOP-18 NSCLC) was > 100 µM. The TGI (SF-295 CNS) was > 100 µM, the TGI (SK-MEL-2 melanoma) was > 100 µM and the TGI (SK-OV-3 ovarian) was > 100 µM. The TGI (UACC-62 melanoma) was > 100 µM, the TGI (A498 renal) was > 100 µM and the TGI (DLD-1 colon) was > 100 µM. For the same molecule, the TGI (SF-268 CNS) was > 100 µM, the TGI (KM12 colon) was > 100 µM and the TGI (RPMI-8226 leukemia) was > 100 µM. For the same molecule, the TGI (SNB-78 CNS) was > 100 µM, the TGI (HOP-92 NSCLC) was > 100 µM and the TGI (SN12C renal) was > 100 µM. For the same molecule, the TGI (MALME-3M melanoma) was > 100 µM, the TGI (SNB-75 CNS) was > 100 µM and the TGI (U251 CNS) was > 100 µM. For the same molecule, the TGI (CAKI-1 renal) was > 100 µM, the TGI (SK-MEL-5 melanoma) was > 100 µM and the TGI (A549 NSCLC) was > 100 µM. The TGI (SK-MEL-28 melanoma) was > 100 µM, the TGI (NCI-H23 lung) was > 100 µM and the TGI (HCT-15 colon) was > 100 µM. For the same molecule, the TGI (786-0 renal) was > 100 µM, the TGI (EKVX NSCLC) was > 100 µM and the TGI (M19-MEL melanoma) was > 100 µM. The TGI (SNB-19 CNS) was > 100 µM.

In the case of `O=C(Nc1ccn(CCOC(=O)c2ccccc2)c(=O)n1)c1ccccc1`, the TGI (OVCAR-3 ovarian) is reported as > 100 µM, the TGI (HOP-62 NSCLC) is reported as > 100 µM and the TGI (DMS 114 small cell lung) is reported as > 100 µM. The TGI (HL-60(TB) leukemia) was > 100 µM, the TGI (M14 melanoma) was > 100 µM and the TGI (COLO 205 colon) was > 100 µM. The TGI (NCI-H522 lung) was > 100 µM, the TGI (KM20L2 colon) was > 100 µM and the TGI (SF-539 CNS) was > 100 µM. The TGI (SR leukemia) was > 100 µM, the TGI (HCT-116 colon) was > 100 µM and the TGI (K-562 leukemia) was > 100 µM. For the same molecule, the TGI (NCI-H460 lung) was > 100 µM, the TGI (ACHN renal) was > 100 µM and the TGI (RXF 393 renal) was > 100 µM. For the same molecule, the TGI (SW-620 colon) was > 100 µM, the TGI (TK-10 renal) was > 100 µM and the TGI (DMS 273 small cell lung) was > 100 µM. For the same molecule, the TGI (OVCAR-5 ovarian) was > 100 µM, the TGI (HT29 colon) was > 100 µM and the TGI (NCI-H226 lung) was > 100 µM. The TGI (IGROV1 ovarian) was > 100 µM, the TGI (OVCAR-8 ovarian) was > 100 µM and the TGI (LOX IMVI melanoma) was > 100 µM. The TGI (LXFL 529 NSCLC) was > 100 µM, the TGI (UO-31 renal) was > 100 µM and the TGI (CCRF-CEM leukemia) was > 100 µM. For the same molecule, the TGI (HOP-18 NSCLC) was > 100 µM, the TGI (SF-295 CNS) was > 100 µM and the TGI (SK-MEL-2 melanoma) was > 100 µM. The TGI (SK-OV-3 ovarian) was > 100 µM, the TGI (UACC-62 melanoma) was > 100 µM and the TGI (A498 renal) was > 100 µM. The TGI (UACC-257 melanoma) was > 100 µM, the TGI (SF-268 CNS) was > 100 µM and the TGI (KM12 colon) was > 100 µM. For the same molecule, the TGI (RPMI-8226 leukemia) was > 100 µM, the TGI (SNB-78 CNS) was > 100 µM and the TGI (HOP-92 NSCLC) was > 100 µM. The TGI (SN12C renal) was > 100 µM, the TGI (MALME-3M melanoma) was > 100 µM and the TGI (SNB-75 CNS) was > 100 µM. The TGI (U251 CNS) was > 100 µM, the TGI (CAKI-1 renal) was > 100 µM and the TGI (SK-MEL-5 melanoma) was > 100 µM. The TGI (A549 NSCLC) was > 100 µM, the TGI (OVCAR-4 ovarian) was > 100 µM and the TGI (SK-MEL-28 melanoma) was > 100 µM. For the same molecule, the TGI (HCT-15 colon) was > 100 µM, the TGI (786-0 renal) was > 100 µM and the TGI (EKVX NSCLC) was > 100 µM. The TGI (M19-MEL melanoma) was > 100 µM.

`Cc1noc(C)c1C1=CCCCc2ccccc21` was tested, and the TGI (OVCAR-3 ovarian) was > 100 µM, the TGI (HOP-62 NSCLC) was > 100 µM and the TGI (DMS 114 small cell lung) was > 100 µM. The TGI (HL-60(TB) leukemia) was 62.7 µM, the TGI (M14 melanoma) was > 100 µM and the TGI (COLO 205 colon) was > 100 µM. The TGI (NCI-H522 lung) was > 100 µM, the TGI (KM20L2 colon) was > 100 µM and the TGI (SF-539 CNS) was > 100 µM. The TGI (SR leukemia) was 74.9 µM, the TGI (HCT-116 colon) was > 100 µM and the TGI (K-562 leukemia) was > 100 µM. The TGI (HCC-2998 colon) was > 100 µM, the TGI (NCI-H460 lung) was > 100 µM and the TGI (ACHN renal) was > 100 µM. The TGI (RXF 393 renal) was > 100 µM, the TGI (SW-620 colon) was > 100 µM and the TGI (DMS 273 small cell lung) was > 100 µM. The TGI (OVCAR-5 ovarian) was > 100 µM, the TGI (MOLT-4 leukemia) was > 100 µM and the TGI (HT29 colon) was > 100 µM. The TGI (IGROV1 ovarian) was > 100 µM, the TGI (OVCAR-8 ovarian) was > 100 µM and the TGI (LXFL 529 NSCLC) was > 100 µM. For the same molecule, the TGI (UO-31 renal) was > 100 µM, the TGI (CCRF-CEM leukemia) was > 100 µM and the TGI (HOP-18 NSCLC) was > 100 µM. The TGI (SF-295 CNS) was > 100 µM, the TGI (SK-MEL-2 melanoma) was > 100 µM and the TGI (SK-OV-3 ovarian) was > 100 µM. For the same molecule, the TGI (UACC-62 melanoma) was > 100 µM, the TGI (UACC-257 melanoma) was > 100 µM and the TGI (DLD-1 colon) was > 100 µM. The TGI (SF-268 CNS) was > 100 µM, the TGI (KM12 colon) was > 100 µM and the TGI (RPMI-8226 leukemia) was > 100 µM. For the same molecule, the TGI (SNB-78 CNS) was > 100 µM, the TGI (HOP-92 NSCLC) was 85.1 µM and the TGI (SN12C renal) was > 100 µM. For the same molecule, the TGI (MALME-3M melanoma) was > 100 µM, the TGI (SNB-75 CNS) was 88.2 µM and the TGI (U251 CNS) was > 100 µM. For the same molecule, the TGI (SK-MEL-5 melanoma) was > 100 µM, the TGI (A549 NSCLC) was > 100 µM and the TGI (OVCAR-4 ovarian) was > 100 µM. The TGI (SK-MEL-28 melanoma) was > 100 µM, the TGI (NCI-H23 lung) was > 100 µM and the TGI (HCT-15 colon) was > 100 µM. For the same molecule, the TGI (786-0 renal) was > 100 µM, the TGI (EKVX NSCLC) was > 100 µM and the TGI (M19-MEL melanoma) was > 100 µM. The TGI (SNB-19 CNS) was > 100 µM.
